Consider 5 molecules from patent US6576670B1, “Use of a 5HT2A and 5HT2A/C receptor antagonist for treating snoring and high resistance syndrome of upper anatomical airways” (Sanofi—Synthelabo, priority 1998, dated 2003).

Like-named read-outs stand apart in the source and are kept apart here.

For assay [1] the following is noted: decerebrated newborn cats; high doses; cited from earlier work.
The conditions of assay [2]: decerebrated newborn rats; cited from earlier work.
Assay [3] relates to 5HT2 receptor. The note with it: in vivo; cited from earlier work.
For another assay, the system named is 5HT2 receptors. To be noted: administered systemically; English bulldog; cited from earlier work.
The subject of another assay is slow wave sleep. Nature of the assay: sleep study in young healthy subjects. It is filed as in vivo, human. The note with it: young (18 to 35 years old) healthy subjects.
The subject of assay [4] is upper airway high resistance syndrome. Nature of the assay: double blind clinical study versus placebo in upper airway high resistance syndrome. It is filed as in vivo, human. The note with it: patients; gelatin capsule, for example 5 mg, daily with the evening meal. The protocol:
The effect of compound A is determined during a clinical study carried out according to a double blind design versus placebo in which patients with upper airway high resistance syndrome characterized by the presence of respiratory efforts with repeated wakefulness or microwakefulness and clinical symptoms such as diurnal somnolence and/or hypertension and/or fatigue and/or morning headache and/or nycturia, and the like took part. One gelatin capsule containing an active dose of compound A, for example 5 mg, is administered daily with the evening meal.

The next assay deals with T1, 5HT1A receptor (Homo sapiens, UniProt P08908).
T1 sequence (P08908 1-422): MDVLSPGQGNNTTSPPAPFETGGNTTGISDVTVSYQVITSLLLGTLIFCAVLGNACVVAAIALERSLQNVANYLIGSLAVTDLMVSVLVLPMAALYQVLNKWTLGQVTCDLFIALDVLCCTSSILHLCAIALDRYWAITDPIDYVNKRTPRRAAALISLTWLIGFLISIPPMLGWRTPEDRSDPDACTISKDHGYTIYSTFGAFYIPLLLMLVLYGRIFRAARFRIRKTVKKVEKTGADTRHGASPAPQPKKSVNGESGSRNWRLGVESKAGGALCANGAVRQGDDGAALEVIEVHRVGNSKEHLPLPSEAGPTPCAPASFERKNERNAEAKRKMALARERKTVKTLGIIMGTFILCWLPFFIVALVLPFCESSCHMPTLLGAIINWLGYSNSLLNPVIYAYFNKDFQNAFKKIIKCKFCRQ
The note with it: cited from earlier work.

The target of a further assay is 5HT1B receptor (Homo sapiens, UniProt P28222). To be noted: cited from earlier work.
A further assay has as its system 5HT1D receptor. The note with it: cited from earlier work.
The next assay has as its target T2, 5HT2C receptor (Homo sapiens, UniProt P28335).
T2 sequence (P28335 33-458): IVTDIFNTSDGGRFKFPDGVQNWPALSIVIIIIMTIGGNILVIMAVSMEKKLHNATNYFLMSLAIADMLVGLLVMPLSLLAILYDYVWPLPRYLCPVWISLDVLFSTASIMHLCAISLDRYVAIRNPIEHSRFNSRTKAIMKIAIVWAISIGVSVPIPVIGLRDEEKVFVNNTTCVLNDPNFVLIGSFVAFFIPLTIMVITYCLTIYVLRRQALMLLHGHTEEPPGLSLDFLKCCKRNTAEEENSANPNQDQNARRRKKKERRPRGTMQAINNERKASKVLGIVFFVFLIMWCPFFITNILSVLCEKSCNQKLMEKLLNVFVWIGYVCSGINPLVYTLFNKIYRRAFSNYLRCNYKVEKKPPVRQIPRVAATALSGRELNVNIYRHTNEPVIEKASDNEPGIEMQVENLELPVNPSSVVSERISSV
The note with it: cited from earlier work.

Another assay concerns the target 5HT2A receptor (Homo sapiens, UniProt P28223). The note with it: cited from earlier work.
For assay [5], the target named is T3, rat stomach fundus (5HT2B) (Rattus norvegicus, UniProt P30994).
T3 construct: from tissue; host or cells: rat stomach fundus (isolated tissue)
To be noted: isolated tissue; indicates 5HT2A specificity versus 5HT2B; cited from earlier work.

Assay [6] has as its system 5HT2 receptor. The note with it: rodents; cited from earlier work.
Another assay has as its system spinal 5HT2 receptors. The note with it: newborn rat tissue preparations in vitro, cited from earlier work.
Assay [7] has as its system 5HT2 receptor. The note with it: rats; cited from earlier work.

Chain of 5HT1B receptor (P28222 whole entry): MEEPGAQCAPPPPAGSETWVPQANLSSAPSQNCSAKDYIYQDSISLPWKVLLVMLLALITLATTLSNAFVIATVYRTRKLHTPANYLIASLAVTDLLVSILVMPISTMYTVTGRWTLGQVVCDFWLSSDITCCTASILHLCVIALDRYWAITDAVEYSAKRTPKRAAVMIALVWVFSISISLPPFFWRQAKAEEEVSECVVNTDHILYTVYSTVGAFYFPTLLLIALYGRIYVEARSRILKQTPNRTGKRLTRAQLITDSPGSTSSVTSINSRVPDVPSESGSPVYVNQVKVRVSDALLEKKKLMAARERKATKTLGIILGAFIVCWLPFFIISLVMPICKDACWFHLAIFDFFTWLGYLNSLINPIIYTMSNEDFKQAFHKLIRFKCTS
Chain of 5HT2A receptor (P28223 whole entry): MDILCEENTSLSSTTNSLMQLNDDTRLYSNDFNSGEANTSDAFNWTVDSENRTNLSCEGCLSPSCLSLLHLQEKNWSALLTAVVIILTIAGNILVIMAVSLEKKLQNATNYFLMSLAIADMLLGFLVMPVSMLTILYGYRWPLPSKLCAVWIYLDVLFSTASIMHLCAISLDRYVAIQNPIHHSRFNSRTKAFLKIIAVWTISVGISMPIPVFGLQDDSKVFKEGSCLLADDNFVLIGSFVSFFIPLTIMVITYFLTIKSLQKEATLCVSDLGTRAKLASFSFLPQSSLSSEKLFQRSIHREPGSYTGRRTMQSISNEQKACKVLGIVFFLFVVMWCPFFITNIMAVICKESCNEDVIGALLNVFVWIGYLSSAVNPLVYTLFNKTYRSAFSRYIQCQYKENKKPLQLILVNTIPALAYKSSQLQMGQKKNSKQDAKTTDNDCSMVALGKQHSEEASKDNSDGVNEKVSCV
T3 sequence (P30994 whole entry): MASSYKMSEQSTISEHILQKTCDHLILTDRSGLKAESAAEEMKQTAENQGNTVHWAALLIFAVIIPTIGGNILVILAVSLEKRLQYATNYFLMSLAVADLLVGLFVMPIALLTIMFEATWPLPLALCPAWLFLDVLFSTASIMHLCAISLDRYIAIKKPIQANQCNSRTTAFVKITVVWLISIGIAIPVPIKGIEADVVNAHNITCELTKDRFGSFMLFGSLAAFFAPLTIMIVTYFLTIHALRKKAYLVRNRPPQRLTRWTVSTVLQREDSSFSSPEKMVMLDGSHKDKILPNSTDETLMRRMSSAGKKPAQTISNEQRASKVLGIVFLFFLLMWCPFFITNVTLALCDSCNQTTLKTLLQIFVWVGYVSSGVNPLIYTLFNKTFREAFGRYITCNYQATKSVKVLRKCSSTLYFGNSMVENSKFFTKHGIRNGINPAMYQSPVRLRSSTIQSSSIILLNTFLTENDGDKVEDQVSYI

For the molecule `NCCc1c[nH]c2ccc(O)cc12` [5-hydroxytryptamine], the apnea after administration entry is “induced prolonged central apneas” in [1] and “no apnea” in assay [2].

As to `CN(C)CCSc1nc2ccccc2cc1-c1ccccc1` [ICI 169 369], the “slow wave sleep time” value with 5HT2 receptor [3] is on record as “regulate or increase”.

Turning to `Cc1nc2sccn2c(=O)c1CCN1CCC(=C(c2ccc(F)cc2)c2ccc(F)cc2)CC1` [ritanserin], the “slow wave sleep time” value in the assay with 5HT2 receptor [3] is “regulate or increase”. Moreover, in the assay on 5HT2 receptors, the “activity of the diaphragm” value is reported as “slight reduction” and the “activity of the dilatory muscle of the upper respiratory tracts” value was “marked reduction”.

Regarding `CN(C)CCO/N=C(/C=C/c1ccc(O)cc1)c1ccccc1F` [compound A, (1Z,2E)-1-(2-fluorophenyl)-3-(4-hydroxyphenyl)prop-2-en-1-one-O-(2-dimethylaminoethyl)oxime hemifumarate], in the assay on slow wave sleep, the paradoxical sleep result was “not being modified”; the “stages 1 and 2 of slow wave sleep” value is listed as “slightly reduced”. Also, in the assay with slow wave sleep (from the dose of 1 mg), the “duration of stages 3 and 4 of slow wave sleep” value is recorded as “doubling”. In assay [4], the clinical symptoms entry is listed as “reduction”, the “number of wakings or microwakings” value is given as “marked reduction” and the respiratory efforts result is “marked reduction”. Further, the “affinity for the 5HT1A receptor” value on 5HT1A receptor is on record as “no affinity”. Besides, the “affinity for the 5HT1B receptor” value at 5HT1B receptor is recorded as “no affinity”. Further, in the assay with 5HT1D receptor, the “affinity for the 5HT1D receptor” value is “no affinity”. Further, the “affinity for the 5HT2C receptor” value on 5HT2C receptor was “moderate affinity”. Moreover, on 5HT2A receptor, the “antagonism of the 5HT2A receptor” value is on record as “antagonist which is specific for the 5HT2A receptor”. For the same molecule, the “activity on rat stomach fundus” value in assay [5] is listed as “absence of activity”. In addition, in the assay with 5HT2 receptor [6], the “binding in the brain” value was “predominantly binds to the regions of the brain containing the 5HT2 receptor”. In addition, the “depressant effect of 5-hydroxytryptamine on the activity of the hypoglossal nerve” value in the assay on spinal 5HT2 receptors was “inhibits”. For the same molecule, the “tonic cervical activity induced by 5-hydroxytryptamine” value with spinal 5HT2 receptors (pretreatment) was “prevents or significantly reduces”.

Consider `O=C(c1ccc(F)cc1)C1CCN(CCn2c(=O)[nH]c3ccccc3c2=O)CC1` [ketanserin], for which, in the assay with 5HT2 receptor [7], the “apnea induced by 5-HT” value is listed as “inhibit” and the “increase in pulmonary resistance induced by 5-HT” value was “inhibit”.
